# Results published in ChEMBL document CHEMBL4251597, “Discovery and evolution of aloperine derivatives as a new family of HCV inhibitors with novel mechanism” (Eur J Med Chem, 2018).
# Assays:
# Hepatitis C virus = assay: Antiviral activity against HCV J6/JFH/JC-1 infected in human Huh7.5 cells assessed as inhibition of viral RNA replication after 72 hrs by qRT-PCR method; type: functional, organism-based, Hepacivirus hominis; conditions: J6/JFH/JC-1, Huh7.5, 72 h
# [1] = Selectivity index, ratio of CC50 for human Huh7.5 cells to EC50 for HCV J6/JFH/JC-1; type: toxicity; conditions: read-out: Ratio CC50/EC50
# [2] = Cytotoxicity against human Huh7.5 cells after 72 hrs by MTT assay; type: cell-based
# [3] = MRT in mouse at 25 mg/kg, po after 0.25 to 6 hrs; type: ADME, organism-based; conditions: in vivo
# [4] = Acute toxicity in po dosed Kunming mouse measured for 7 days; type: organism-based; conditions: in vivo
# [5] = Tmax in mouse at 25 mg/kg, po after 0.25 to 6 hrs; type: ADME, organism-based; conditions: in vivo
# [6] = Cmax in mouse at 25 mg/kg, po after 0.25 to 6 hrs; type: ADME, organism-based; set-up: dose 25 mg/kg, route oral; conditions: in vivo
# [7] = Half life in mouse at 25 mg/kg, po after 0.25 to 6 hrs; type: ADME, organism-based; conditions: in vivo
# [8] = AUC (0 to t) in mouse at 25 mg/kg, po after 0.25 to 6 hrs; type: ADME, organism-based; set-up: time upper 6 hr, time lower 0.25 hr, dose 25 mg/kg, route oral; conditions: in vivo
EC50 (Hepatitis C virus) [µM],SMILES,selectivity ratio [1],CC50 at 72 h [2] [µM],MRT [3] [h],LD50 at 168 h [4] [mg/kg],Tmax [5] [h],Cmax [6] [nM],half-life [7] [h],AUC(0-t) [8] [µM·h]
8.2,COC(=O)c1ccccc1S(=O)(=O)N1CCCC2=C[C@H]3C[C@H](CN4CCCC[C@H]34)[C@@H]21,32.8,269,–,–,–,–,–,–
4.89,COc1ccc(S(=O)(=O)N2CCCC3=C[C@H]4C[C@H](CN5CCCC[C@H]45)[C@@H]32)cc1C,15,73.2,–,–,–,–,–,–
1.81,CC(C)Oc1ccc(S(=O)(=O)N2CCCC3=C[C@H]4C[C@H](CN5CCCC[C@H]45)[C@@H]32)cc1,19.2,34.8,–,–,–,–,–,–
46.4,O=C(O)c1ccccc1S(=O)(=O)N1CCCC2=C[C@H]3C[C@H](CN4CCCC[C@H]34)[C@@H]21,> 10.8,> 500,–,–,–,–,–,–
54.7,CC(=O)Nc1ccc(S(=O)(=O)N2CCCC3=C[C@H]4C[C@H](CN5CCCC[C@H]45)[C@@H]32)cc1,5.64,309,–,–,–,–,–,–
11.6,COC(=O)c1ccc(C(=O)N2CCCC3=C[C@H]4C[C@H](CN5CCCC[C@H]45)[C@@H]32)cc1,23.4,271,–,–,–,–,–,–
6.78,COc1ccccc1CN1CCCC2=C[C@H]3C[C@H](CN4CCCC[C@H]34)[C@@H]21,10.2,69.3,–,–,–,–,–,–
7.35,O=S(=O)(c1cccc2cccnc12)N1CCCC2=C[C@H]3C[C@H](CN4CCCC[C@H]34)[C@@H]21,33.8,249,–,–,–,–,–,–
1.95,N#Cc1ccccc1CN1CCCC2=C[C@H]3C[C@H](CN4CCCC[C@H]34)[C@@H]21,9.64,18.8,–,–,–,–,–,–
80.6,COC(=O)c1ccc(S(=O)(=O)N2CCCC3=C[C@H]4C[C@H](CN5CCCC[C@H]45)[C@@H]32)cc1,3.51,283,–,–,–,–,–,–
6.39,COc1ccc(S(=O)(=O)N2CCCC3=C[C@H]4C[C@H](CN5CCCC[C@H]45)[C@@H]32)cc1OC,33.6,215,–,–,–,–,–,–
23.5,O=S(=O)(c1ccc2c(c1)OCCO2)N1CCCC2=C[C@H]3C[C@H](CN4CCCC[C@H]34)[C@@H]21,> 21.3,> 500,–,–,–,–,–,–
12.4,CC(=O)Nc1nc(C)c(S(=O)(=O)N2CCCC3=C[C@H]4C[C@H](CN5CCCC[C@H]45)[C@@H]32)s1,14.7,182,–,–,–,–,–,–
73.7,O=C(O)c1ccc(C(=O)N2CCCC3=C[C@H]4C[C@H](CN5CCCC[C@H]45)[C@@H]32)cc1,> 6.78,> 500,–,–,–,–,–,–
3.4,N#Cc1ccc(S(=O)(=O)N2CCCC3=C[C@H]4C[C@H](CN5CCCC[C@H]45)[C@@H]32)cc1,78,265,1.82,–,0.33,410,1.97,0.77
11.4,O=S(=O)(c1ccncc1)N1CCCC2=C[C@H]3C[C@H](CN4CCCC[C@H]34)[C@@H]21,32.6,371,–,–,–,–,–,–

EC50 (Hepatitis C virus) [µM],SMILES,selectivity ratio [1],CC50 at 72 h [2] [µM],MRT [3] [h],LD50 at 168 h [4] [mg/kg],Tmax [5] [h],Cmax [6] [nM],half-life [7] [h],AUC(0-t) [8] [µM·h]
> 167,O=C(O)c1ccc(S(=O)(=O)N2CCCC3=C[C@H]4C[C@H](CN5CCCC[C@H]45)[C@@H]32)cc1,–,> 500,–,–,–,–,–,–
10.7,Nc1ccc(S(=O)(=O)N2CCCC3=C[C@H]4C[C@H](CN5CCCC[C@H]45)[C@@H]32)cc1,26.9,288,–,–,–,–,–,–
1.21,COc1ccc(Cl)cc1S(=O)(=O)N1CCCC2=C[C@H]3C[C@H](CN4CCCC[C@H]34)[C@@H]21,76.8,92.9,–,–,–,–,–,–
8.65,O=S(=O)(c1ccc2c(c1)CCO2)N1CCCC2=C[C@H]3C[C@H](CN4CCCC[C@H]34)[C@@H]21,25.1,217,–,–,–,–,–,–
68.6,O=C1c2ccccc2C(=O)N1CCS(=O)(=O)N1CCCC2=C[C@H]3C[C@H](CN4CCCC[C@H]34)[C@@H]21,> 7.29,> 500,–,–,–,–,–,–
5.57,CC(=O)c1ccc(S(=O)(=O)N2CCCC3=C[C@H]4C[C@H](CN5CCCC[C@H]45)[C@@H]32)cc1,42.1,234,–,–,–,–,–,–
18.7,CS(=O)(=O)c1ccc(S(=O)(=O)N2CCCC3=C[C@H]4C[C@H](CN5CCCC[C@H]45)[C@@H]32)cc1,9.97,186,–,–,–,–,–,–
28.3,COc1cc(C(=O)N2CCCC3=C[C@H]4C[C@H](CN5CCCC[C@H]45)[C@@H]32)cc(OC)c1OC,10.2,290,–,–,–,–,–,–
3.56,O=[N+]([O-])c1ccc(CN2CCCC3=C[C@H]4C[C@H](CN5CCCC[C@H]45)[C@@H]32)cc1,26.5,94.4,–,–,–,–,–,–
5.5,O=S(=O)(c1cccc2nsnc12)N1CCCC2=C[C@H]3C[C@H](CN4CCCC[C@H]34)[C@@H]21,57.2,314,–,–,–,–,–,–
62.5,COc1ccc(C(=O)N2CCCC3=C[C@H]4C[C@H](CN5CCCC[C@H]45)[C@@H]32)cc1,> 8,> 500,–,–,–,–,–,–
3.32,N#Cc1ccccc1S(=O)(=O)N1CCCC2=C[C@H]3C[C@H](CN4CCCC[C@H]34)[C@@H]21,77.1,256,–,–,–,–,–,–
6.01,COc1ccc(S(=O)(=O)N2CCCC3=C[C@H]4C[C@H](CN5CCCC[C@H]45)[C@@H]32)cc1,16.9,102,–,–,–,–,–,–
0.96,COc1ccc(CN2CCCC3=C[C@H]4C[C@H](CN5CCCC[C@H]45)[C@@H]32)cc1,86.6,83.1,–,–,–,–,–,–
6.03,Cc1nc(N)sc1S(=O)(=O)N1CCCC2=C[C@H]3C[C@H](CN4CCCC[C@H]34)[C@@H]21,34.7,209,–,–,–,–,–,–

SMILES,EC50 (Hepatitis C virus) [µM],selectivity ratio [1],CC50 at 72 h [2] [µM],MRT [3] [h],LD50 at 168 h [4] [mg/kg],Tmax [5] [h],Cmax [6] [nM],half-life [7] [h],AUC(0-t) [8] [µM·h]
NCCS(=O)(=O)N1CCCC2=C[C@H]3C[C@H](CN4CCCC[C@H]34)[C@@H]21,2.72,97.2,264,5.96,750,1.17,1450,10.2,7.78
C1=C2CCCN(Cc3ccncc3)[C@H]2[C@@H]2C[C@H]1[C@H]1CCCCN1C2,97.9,> 5.11,> 500,–,–,–,–,–,–
C1=C2CCCN[C@H]2[C@@H]2C[C@H]1[C@H]1CCCCN1C2,4.32,54.5,235,–,–,–,–,–,–
